What was measured:
[1] = target: T1, CDK2/cyclin E (Homo sapiens, UniProt P24941); experiment: Kinase assay, CDK2/cyclin E inhibition; format: biochemical
T1 construct: His6; made in house; host or cells: Sf9 insect cells (baculovirus)
Experimental: (§1) Recombinant cyclin DI was expressed in E. coli. Proteins were purified by metal chelate affnity chromatography to greater than 90% homogeneity. […] Reactions were stopped on ice, followed by filtration through p81 filterplates or GF/C filterplates (for CDK4) (Whatman Polyfiltronics, Kent, UK), except for CDK7 where, after stopping reaction on ice, 10 μL of 10 mg/mL avidin was added to each well and further incubated for 10 min followed by filtration as per CDK2 assay. After washing 3 times with 75 mM aq orthophosphoric acid, plates were dried, scintillant added and incorporated radioactivity measured in a scintillation counter (TopCount, Packard Instruments, Pangbourne, Berks, UK). Compounds for kinase assay were made up as 10 mM stocks in DMSO and diluted into 10% DMSO in assay buffer.

[2] = target: T2, CDK1/cyclin B (Homo sapiens, UniProt P06493); experiment: Kinase assay, CDK1/cyclin B inhibition; format: biochemical
T2 construct: His6; made in house; host or cells: Sf9 insect cells (baculovirus)
Experimental: as §1

[3] = target: T3, CDK4/cyclin D1 (Homo sapiens, UniProt P11802); experiment: Kinase assay, CDK4/cyclin D1 inhibition; format: biochemical
T3 construct: His6; made in house; host or cells: CDK4: Sf9 insect cells (baculovirus); cyclin D1: E. coli
T3 sequence (P11802 whole entry): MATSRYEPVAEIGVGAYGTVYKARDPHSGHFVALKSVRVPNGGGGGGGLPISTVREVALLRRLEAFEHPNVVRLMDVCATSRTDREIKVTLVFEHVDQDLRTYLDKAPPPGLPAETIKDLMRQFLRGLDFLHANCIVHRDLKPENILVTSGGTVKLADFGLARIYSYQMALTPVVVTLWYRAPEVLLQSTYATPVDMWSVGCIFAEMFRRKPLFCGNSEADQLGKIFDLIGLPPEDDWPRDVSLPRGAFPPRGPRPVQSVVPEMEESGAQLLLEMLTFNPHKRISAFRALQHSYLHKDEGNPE
T3 sequence (P24385 whole entry partner): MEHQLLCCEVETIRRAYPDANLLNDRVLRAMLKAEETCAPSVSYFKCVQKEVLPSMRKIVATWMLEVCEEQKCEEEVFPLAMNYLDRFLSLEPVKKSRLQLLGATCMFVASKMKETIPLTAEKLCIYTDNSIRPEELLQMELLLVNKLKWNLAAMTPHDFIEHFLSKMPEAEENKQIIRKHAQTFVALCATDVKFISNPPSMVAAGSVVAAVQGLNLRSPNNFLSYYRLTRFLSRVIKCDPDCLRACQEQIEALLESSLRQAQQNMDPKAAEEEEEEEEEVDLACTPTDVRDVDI
Experimental: as §1

[4] = target: T4, CDK7/cyclin H (Homo sapiens, UniProt P50613); experiment: Kinase assay, CDK7/cyclin H inhibition; format: biochemical
T4 construct: His6; made in house; host or cells: Sf9 insect cells (baculovirus)
T4 sequence (P50613 whole entry): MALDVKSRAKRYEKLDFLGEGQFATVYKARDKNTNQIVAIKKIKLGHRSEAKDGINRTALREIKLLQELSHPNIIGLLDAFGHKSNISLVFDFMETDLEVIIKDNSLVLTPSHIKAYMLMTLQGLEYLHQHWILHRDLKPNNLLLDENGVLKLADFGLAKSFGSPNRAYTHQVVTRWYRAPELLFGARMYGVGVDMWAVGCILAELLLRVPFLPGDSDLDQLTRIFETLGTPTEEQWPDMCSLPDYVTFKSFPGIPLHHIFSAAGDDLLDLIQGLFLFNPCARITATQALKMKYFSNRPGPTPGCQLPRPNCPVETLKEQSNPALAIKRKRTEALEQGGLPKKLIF
T4 sequence (P51946 whole entry partner): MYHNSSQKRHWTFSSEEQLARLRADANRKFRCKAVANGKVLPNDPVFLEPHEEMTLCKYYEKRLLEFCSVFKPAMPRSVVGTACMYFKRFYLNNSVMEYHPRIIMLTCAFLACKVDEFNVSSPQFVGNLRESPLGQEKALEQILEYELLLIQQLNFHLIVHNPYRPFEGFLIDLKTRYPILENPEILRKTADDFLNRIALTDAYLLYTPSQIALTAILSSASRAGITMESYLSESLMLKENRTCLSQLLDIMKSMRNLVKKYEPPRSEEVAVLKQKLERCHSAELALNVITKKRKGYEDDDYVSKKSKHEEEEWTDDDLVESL
Experimental: as §1

[5] = target: T5, cyclic AMP-dependent kinase (PKA) catalytic subunit (Homo sapiens, UniProt P17612); experiment: Kinase assay, PKA inhibition; format: biochemical
T5 construct: purchased Calbiochem 539487
Experimental: as §1

[6] = target: T6, ERK2 (Homo sapiens, UniProt P28482); experiment: Kinase assay, ERK-2 inhibition; format: biochemical
T6 construct: purchased Upstate Biotechnology
T6 sequence (P28482 whole entry, species assumed): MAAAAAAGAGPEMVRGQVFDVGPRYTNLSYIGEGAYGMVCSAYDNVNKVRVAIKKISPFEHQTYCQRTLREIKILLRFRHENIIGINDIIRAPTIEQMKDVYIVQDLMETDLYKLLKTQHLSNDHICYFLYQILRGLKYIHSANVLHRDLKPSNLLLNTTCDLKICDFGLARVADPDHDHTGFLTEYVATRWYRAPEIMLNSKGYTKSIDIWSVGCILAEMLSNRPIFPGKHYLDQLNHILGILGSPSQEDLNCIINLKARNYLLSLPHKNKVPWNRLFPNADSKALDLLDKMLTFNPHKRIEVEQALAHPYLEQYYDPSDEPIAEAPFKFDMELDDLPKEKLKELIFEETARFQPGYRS
Experimental: Reactions were stopped on ice, followed by filtration through p81 filterplates or GF/C filterplates (for CDK4) (Whatman Polyfiltronics, Kent, UK), except for CDK7 where, after stopping reaction on ice, 10 μL of 10 mg/mL avidin was added to each well and further incubated for 10 min followed by filtration as per CDK2 assay. After washing 3 times with 75 mM aq orthophosphoric acid, plates were dried, scintillant added and incorporated radioactivity measured in a scintillation counter (TopCount, Packard Instruments, Pangbourne, Berks, UK). Compounds for kinase assay were made up as 10 mM stocks in DMSO and diluted into 10% DMSO in assay buffer.

[7] = tested on: Human tumour cell lines: A549, HT29, Saos-2; experiment: 72-h MTT cytotoxicity assay; format: cell-based; settings: for IC50: read-out: In vitro anti-proliferative activity (72 h MTT IC50), 72 h MTT, human tumour cell lines A549, HT29, Saos-2
Experimental: In short: cells were seeded into 96-well plates according to doubling time and incubated overnight at 37° C. Test compounds were made up in DMSO and a 1/3 dilution series prepared in 100 μL cell media, added to cells (in triplicates) and incubated for 72 ho at 37° C. MTT was made up as a stock of 5 mg/mL in cell media and filter-sterilised. Media was removed from cells followed by a wash with 200 μL PBS. MTT solution was then added at 20 μL per well and incubated in the dark at 37° C. for 4 h. MTT solution was removed and cells again washed with 200 μL PBS. MTT dye was solubilised with 200 μL per well of DMSO with agitation.

[8] = Comparative in vitro metabolism assay (microsomal incubation); settings: for % Drug after 30 min. microsomal incubation: 10 μM compound, 0.2 mg microsomal protein, NADPH; for A: % Compound remaining/% roscovitine remaining: ratio to roscovitine, 30 min microsomal incubation
Experimental: Calibration curves were prepared at 0, 1, and 10 μM in microsomes pre-incubated for 30 min and these were also treated with methanol containing olomoucine. All samples were then centrifuged and the supernatants analysed by liquid chromatography-mass spectrometry.
The chromatography column was a Supelco LC-ABZ, 50×4.6 mm, 5 μm zwitterionic column (Supelco Inc., Supelco Park, Bellefonte, Pa., USA). Gradient eluants consisted of methanol (A) and 0.1% formic acid in water (B). […] The flow rate was 1 mL/min throughout. […] Eluant from the detector passed, without splitting, into a Thermoquest LCQ ion trap mass spectrometer fitted with an electrospray source operated in positive mode. Mass spectrometer conditions were sheath gas 80, auxiliary gas 20 (both arbitrary units), capillary voltage 4 to 4.5 kV and heated capillary temperature 250 to 280° C. The mass range was 50-750. Scan time was controlled by the ion trap which was set to a maximum ion injection-time of 200 ms or the time required to inject 2×10^8 ions; for each scan the system automatically used whichever time was reached first.

[9] = tested on: representative panel of human transformed tumour cell lines; experiment: Average anti-proliferative activity in tumour cell line panel; format: cell-based; settings: average over representative panel of human transformed tumour cell lines

T2 sequence (P06493 whole entry): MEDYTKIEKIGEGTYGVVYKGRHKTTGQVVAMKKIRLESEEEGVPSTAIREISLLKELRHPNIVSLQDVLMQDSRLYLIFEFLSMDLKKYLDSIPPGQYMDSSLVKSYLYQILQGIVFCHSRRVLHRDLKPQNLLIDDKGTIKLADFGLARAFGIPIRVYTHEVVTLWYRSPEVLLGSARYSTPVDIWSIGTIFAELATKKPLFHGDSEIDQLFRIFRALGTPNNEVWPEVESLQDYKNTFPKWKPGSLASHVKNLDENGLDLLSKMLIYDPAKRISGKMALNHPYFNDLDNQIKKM
T2 sequence (P14635 whole entry partner): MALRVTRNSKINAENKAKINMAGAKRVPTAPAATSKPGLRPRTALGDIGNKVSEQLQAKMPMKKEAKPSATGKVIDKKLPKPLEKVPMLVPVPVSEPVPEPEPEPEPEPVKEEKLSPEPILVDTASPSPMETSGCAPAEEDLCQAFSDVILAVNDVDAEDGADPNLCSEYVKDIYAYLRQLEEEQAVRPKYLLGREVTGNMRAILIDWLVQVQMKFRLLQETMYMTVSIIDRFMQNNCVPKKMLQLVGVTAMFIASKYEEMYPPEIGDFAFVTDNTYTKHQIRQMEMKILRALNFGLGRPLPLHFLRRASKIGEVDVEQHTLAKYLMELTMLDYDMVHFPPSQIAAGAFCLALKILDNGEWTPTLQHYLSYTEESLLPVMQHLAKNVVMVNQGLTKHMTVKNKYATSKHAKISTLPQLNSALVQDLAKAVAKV

Row | Compound | IC50 [1] | IC50 [2] | IC50 [3] | IC50 [4] | IC50 [5] | IC50 [6] | IC50 [7] | A × B ([1]; comparative in vitro efficacy: metabolism ratio × CDK2 ratio) | B: IC50 CDK2 roscovitine/IC50 CDK2 compound ([1]; ratio to roscovitine) | C: IC50 cytotox. roscovitine/IC50 cytotox. compound ([7]; ratio to roscovitine) | % Drug after 30 min. microsomal incubation [8] | A: % Compound remaining/% roscovitine remaining [8] | IC50 [9]
1 | CC[C@@H](Nc1nc(NCc2ccccn2)c2ncn(C(C)C)c2n1)C(O)C(C)(C)C (mixture of isomers) [(3RS,4R)-4-{9-Isopropyl-6-[(pyridin-2-ylmethyl)-amino]-9H-purin-2-ylamino}-2,2-dimethyl-hexan-3-ol] | 2800 nM | > 200 µM | 38 µM | 2400 nM | > 200 µM | > 200 µM | 38 µM | – | – | – | – | – | –
2 | CC[C@@H](Nc1nc(NCc2ccccn2)c2ncn(C(C)C)c2n1)C(O)C(C)C (mixture of isomers) [(3RS,4R)-4-{9-Isopropyl-6-[(pyridin-2-ylmethyl)-amino]-9H-purin-2-ylamino}-2-methyl-hexan-3-ol] | 3400 nM | 84 µM | 32 µM | 3900 nM | > 200 µM | > 200 µM | 23 µM | – | – | – | – | – | –
3 | CCC(O)[C@@H](CC)Nc1nc(NCc2ccccn2)c2ncn(C(C)C)c2n1 (mixture of isomers) [(3RS,4R)-4-{9-Isopropyl-6-[(pyridin-2-ylmethyl)-amino]-9H-purin-2-ylamino}-hexan-3-ol] | 770 nM | 35 µM | 20 µM | 1200 nM | > 200 µM | 230 µM | 19 µM | – | – | – | – | – | –
4 | CC[C@H](Nc1nc(NCc2ccccn2)c2ncn(C(C)C)c2n1)C(O)C(C)(C)C (mixture of isomers) [(3RS,4S)-4-{9-Isopropyl-6-[(pyridin-2-ylmethyl)-amino]-9H-purin-2-ylamino}-2,2-dimethyl-hexan-3-ol] | 1000 nM | > 200 µM | 22 µM | 5800 nM | > 200 µM | 137 µM | 33 µM | – | – | – | – | – | –
5 | CC[C@H](Nc1nc(NCc2ccccn2)c2ncn(C(C)C)c2n1)C(O)C(C)C (mixture of isomers) [(3RS,4S)-4-{9-Isopropyl-6-[(pyridin-2-ylmethyl)-amino]-9H-purin-2-ylamino}-2-methyl-hexan-3-ol] | 3100 nM | > 200 µM | 49 µM | 3300 nM | > 200 µM | > 200 µM | 26 µM | – | – | – | – | – | –
6 | CCC(O)[C@H](CC)Nc1nc(NCc2ccccn2)c2ncn(C(C)C)c2n1 (mixture of isomers) [(3RS,4S)-4-{9-Isopropyl-6-[(pyridin-2-ylmethyl)-amino]-9H-purin-2-ylamino}-hexan-3-ol] | 420 nM | 40 µM | 24 µM | 2600 nM | > 200 µM | 80 µM | 27 µM | – | – | – | – | – | –
7 | CC[C@H](Nc1nc(NCc2ccccn2)c2ncn(C(C)C)c2n1)[C@@H](C)O [(2R3S)-3-{9-Isopropyl-6-[(pyridin-2-ylmethyl)-amino]-9H-purin-2-ylamino}-pentan-2-ol] | 50 nM | 8.9 µM | 18 µM | 2600 nM | > 200 µM | 77 µM | 9.8 µM | 1.9 | 1.9 | 1.2 | 33% | 1.0 | –
8 | CC[C@@H](Nc1nc(NCc2ccccn2)c2ncn(C(C)C)c2n1)[C@H](C)O [(2S3R)-3-{9-Isopropyl-6-[(pyridin-2-ylmethyl)-amino]-9H-purin-2-ylamino}-pentan-2-ol] | 520 nM | 39 µM | 48 µM | 550 nM | > 200 µM | 73 µM | 12 µM | – | – | – | – | – | –
9 | CC[C@@H](Nc1nc(NCc2ccccn2)c2ncn(C(C)C)c2n1)C(C)(C)O [(3R)-3-{9-Isopropyl-6-[(pyridin-2-ylmethyl)-amino]-9H-purin-2-ylamino}-2-methyl-pentan-2-ol] | 480 nM | 44 µM | 18 µM | 4200 nM | > 200 µM | > 200 µM | 35 µM | – | – | – | – | – | –
10 | CC[C@H](CO)Nc1nc(NCc2ccccc2)c2ncn(C(C)C)c2n1 [Roscovitine, reference compound] | – | – | – | – | – | – | – | – | – | – | 33% | 1.0 | –
11 | CC[C@@H](Nc1nc(NCc2ccccc2)c2ncn(C(C)C)c2n1)C(=O)O [carboxyl derivative, (2R)-2-(6-Benzylamino-9-isopropyl-9H-purin-2-ylamino)-butyric acid] | – | – | – | – | – | – | – | – | – | – | – | – | > 50 µM
